In data set [1] the test system is HepG2 human hepatoma cells. To be noted: 4 h. As to the method: Mammalian Cell Toxicity Assay
To investigate the toxicity of Compound I for mammalian cells, human hepatoma cell line HepG2 were exposed to Compound I and the (LD50) was determined. Briefly, HepG2 human hepatoma cells (American Type Culture Collection, Bethesda Md.) were plated at 1×10^5 cells/well in tissue culture treated 96 well plates and incubated at 5% CO2, 37° C. for 18 h prior to initiation of the assay. The compound stocks at 100 mM in DMSO were added to DM (defined media, media without serum with added insulin, selenium and transferrin) at an initial concentration of 1000 μM and serially diluted 1 to 3 in DM in a 96 well plate. For 20 μL of a test solution, 3.5 μL sample is added to 346.5 μL media for an initial concentration of 1000 μM. These dilutions are added to the cells at final sample concentrations between 0.5 and 1000 μM (<1% DMSO). Controls included: media only (negative control) and 0.1% Triton-X (positive control). Control drugs (tamoxifen and 2-thiouracil) were also used to verify each assay. The samples were incubated at 37° C. in humidified 5% CO2 atmosphere for 4 h.
The plate was read directly on the Tecan Spectrafluor Plus reader in the fluorescent mode at excitation 530 nm and emission 595 nm. The blank was subtracted from the total fluorescence to give the net fluorescence for that well. This total was compared to the control in the absence of the compound. An LD50 (concentration at 50% of lethal dose) is calculated as the concentration that leads to a response of 50% compared to the control cells. Thus, cytotoxicity is measured as percent of inhibition of cell viability as determined by the Alamar Blue assay.

Data set [2] concerns logarithmic phase C. albicans (MC295) containing HWP1-lacZ. As to the kind of experiment: microbe, parasite or virus in culture. It is filed as cell-based. The settings on record: Candida albicans.
Data set [3] concerns C. albicans. The experiment in a line: C. albicans overnight growth inhibition. It is filed as cell-based, Candida albicans. On the set-up: concentration or dose not given beside the values.
The subject of data set [4] is stationary phase C. albicans (MC295) containing HWP1-lacZ. The experiment in a line: microbe, parasite or virus in culture. It is filed as cell-based, Candida albicans.
A further data set has as its system C. albicans (MC303). As to the kind of experiment: C. albicans morphology assay (hyphae scored 1-5). To be noted: scale 1-5; for C. albicans Phenotype Rating: invasion morphology phenotype, test compound at 10 μM.
The test system of data set [5] is C. albicans. As to the kind of experiment: Mouse model of fungal invasion, kidney lesion count (Compound II, IP and oral). It is filed as in vivo. To be noted: mice, 1 mg IP and oral repeated, 2×10^6 C. albicans, sacrifice about t=19 h, FIG. 1. As to the method:
A mouse model of fungal invasion was used to examine the in vivo efficacy of Compound II in reducing invasion by C. albicans.
Briefly, 30 min prior to infection (t=−30 min) 1 mg of Compound II in buffer (10 treatment mice) or buffer only (10 control mice) was administered IP. At t=0 all mice were inoculated with 2×10^6 C. albicans. At t=6 h and t=14 h the IP treatment with Compound II or buffer was repeated. In addition, at t=2, t=4 h, t=10 h, and t=18 h 1 mg of Compound II or buffer only was administered orally. The mice were sacrificed at about t=19 h and the kidneys of the mice were examined for histologic signs of fungal invasion by counting the number of lesions.

For data set [6], the system named is C. albicans. The experiment in a line: Mouse model of fungal invasion, kidney histology score (Compound III in diet). It is filed as in vivo. To be noted: mice, powdered diet supplemented from t=−24 h to t=48 h, FIG. 2. As to the method: A mouse model of fungal invasion was used to examine the in vivo efficacy of orally administered Compound III in reducing invasion by C. albicans. Briefly, one day prior to infection (t=−24 h) mice were switched to a powdered diet supplemented Compound III (treatment mice) or no supplement (control mice). This diet was continued until the mice were sacrificed at t=48 h. The kidneys of the mice were then examined for histologic signs of fungal invasion. In the scoring system used, a score of 5 indicates the presence of many, large fungus-dominated lesions, a score of 3 indicates the presence of many inflammatory lesion and fungus-dominated lesion of mixed size, and a score of 1 indicates few, mainly inflammatory lesions.

The test system of data set [7] is HepG2 human hepatoma cells. To be noted: cited from earlier work.
[8] abbreviates: read-out: C. albicans LOG IC50, logarithmic phase growth invasion assay (converted).
Setting [9] is: Candida albicans, read-out: C. albicans STAT IC50, stationary phase growth invasion assay.

Several values for one entry are separate records, joined by “and”; a condition that tells them apart may be missing. Equal values may be shown once. Read-outs that look alike come from different tables or passages of the source.

The melting point is the temperature of the solid-liquid transition.

Method for C. albicans (MC303): In this assay, described in greater detail below, the morphology of cells was assessed and scored on a 1-5 scale. A score of 1 was assigned to non-hyphal cells, “yeast-like” cells and budding cells, and a score of 5 was assigned to cells having many, relatively long (wild-type) hyphae.
A frozen stock culture was prepared by streaking C. albicans (MC303: ura3 Δ:: imm434/ura3Δ:: imm434 arg4::hisG/arg4::hisG ade2:: URA3:.pTEF1-lacZ/ADE2 hisl::hisG/HIS1 gal1::ARG4/GAL1) cells on a YPD agar plate and grown at 30° C. for 14-18 h. An isolated colony was added to 5 mL of YPD broth and grown on a roller drum (60 rpm) for 14-18 h at 30° C. Next, 600 μL of culture were aliquotted into 1 mL of 25% glycerol, and the tubes are stored at −80° C.
Frozen MC303 C. albicans cell stock was struck for isolation of a single colony using a sterile loop on a YPD agar plate and grown at 30° C. for 14-18 h. A single colony was inoculated into 5 mL of YPD in a test tube and grown on a roller drum (60 rpm) for 2 days at 30° C. to late stationary phase (OD600˜30). For the assay, this stock was diluted to 2.5×10^5 cells/mL to make a 10× stock. Next, 10 μL of this cell stock was added to 80 μL of Inducing Media and 10 μL of 10× compound stock or DMSO in a Coming, tissue-culture treated, flat-bottom, microtiter plate. The plate was incubated at 37° C. for 24 h. Next, 10 μL of formaldehyde (37%) was added to each well and the cells were fixed for 10 min. The liquid was gently decanted from the plate and each well was examined under a microscope. Each well was photographed and observed cells are scored on a scale of 1-5. […] A 1 indicates cells are non-hyphal with only “yeast-like” cells and budding cells.
Scores of 2, 3, and 4 indicate shorter length or reduced quantity of hyphae when compared with WT (2 being very near non-hyphal and 4 being close to WT).

As to `Cc1cc(NS(=O)(=O)c2ccc(CC3CCCC3)cc2)no1`, in data set [1], the “AFDD Mammalian Cytotoxicity LD50” value came out at 660.9 µM. Besides, the IC50 in [2] (setting [8]) is 0.0793 µM; in [4] (setting [9]) it was 4.47 µM. In addition, the “C. albicans Overnight Growth Inhibition” value with C. albicans [3] was 0.9%. Also, in the data set with C. albicans (MC303), the “C. albicans Phenotype Rating” value is 2 and 4 and 5.
In the case of `CCCNc1ccc(S(=O)(=O)Nc2cc(C)on2)cc1` [Compound II], the “number of lesions on kidneys” value with C. albicans [5] was “decreases the number of lesion relative to the control”.
`CCCNc1ccc(S(=O)(=O)Nc2cc(C)on2)cc1` [drawing 266]: the “AFDD Mammalian Cytotoxicity LD50” value in data set [1] was over 1000 µM. The IC50 in data set [2] (setting [8]) is 0.36 µM; in data set [4] (setting [9]), 10.4 µM; in data set [4] (read-out: C. albicans STAT IC50, stationary phase growth invasion assay), over 20 µM. In addition, the “C. albicans Overnight Growth Inhibition” value in the data set on C. albicans [3] was −17.9%.
Consider `Cc1cc(NS(=O)(=O)c2ccc(-c3ccco3)cc2)no1`, for which, in data set [1], the “AFDD Mammalian Cytotoxicity LD50” value was over 1000 µM. In addition, the IC50 in data set [2] (setting [8]) was 0.039 µM; in data set [4] (setting [9]) it was over 20 µM. Further, the “C. albicans Overnight Growth Inhibition” value in the data set with C. albicans [3] is recorded as 23.9%. The “C. albicans Phenotype Rating” value in the data set on C. albicans (MC303) is recorded as 4.
Turning to `CCCCc1ccc(S(=O)(=O)Nc2cc(C)on2)cc1` [Compound I], the “mammalian cell LD50” value in [1] is “greater than 1000 μM”. The IC50 in data set [2] (read-out: concentration inhibiting invasion of logarithmic phase C. albicans by 50%, logarithmic phase) turned out to be 0.0049 µg/mL; in [4] (Candida albicans, read-out: concentration inhibiting invasion of stationary phase C. albicans by 50%, stationary phase), 0.85 µg/mL. In the data set with C. albicans (MC303) (10 μM), this compound displayed an average morphology score of 1.
Regarding `Cc1cc(NS(=O)(=O)c2ccc(OC(F)(F)F)cc2)no1`, in data set [1], the “AFDD Mammalian Cytotoxicity LD50” value is over 1000 µM. The IC50 in data set [2] (setting [8]) is 10.7 µM; in data set [4] (setting [9]), over 20 µM. In the data set with C. albicans [3], the “C. albicans Overnight Growth Inhibition” value worked out at 4.0%. In the data set on C. albicans (MC303), the “C. albicans Phenotype Rating” value was 4.
Regarding `Cc1cc(NS(=O)(=O)c2ccc(-c3ccc(F)cc3F)cc2)no1` [Compound III], the “kidney histology score (severity of fungal invasion)” value in the data set on C. albicans [6] was “decreases severity of fungal invasion relative to the control”.
On to `O=c1cc[nH]c(=S)[nH]1` [Compound 2-thiouracil, 2-thiouracil], for which the “expected LD50 of control drug” value in [7] was over 1000 µM.
Consider `Cc1cc(NS(=O)(=O)c2ccc(-c3ccc(F)cc3)cc2C)no1`, for which the “AFDD Mammalian Cytotoxicity LD50” value in data set [1] came to 648.5 µM. Also, the IC50 was 1.47 µM in data set [2] (setting [8]) and over 20 µM in data set [4] (setting [9]). Also, the “C. albicans Overnight Growth Inhibition” value with C. albicans [3] is given as 1.3%. For the same compound, the “C. albicans Phenotype Rating” value in the data set with C. albicans (MC303) is given as 4.
Consider `Cc1cc(NS(=O)(=O)c2ccc(-c3cc(F)cc(F)c3)cc2)no1` [Example 1, N-(5-methyl-3-isoxazolyl)-4′-(3,5-difluorophenyl)benzensulfonamide], for which the melting point was determined as 175 °C.
In the case of `Cc1cc(NS(=O)(=O)c2ccc(C(C)(C)C)cc2)no1`, in data set [1], the “AFDD Mammalian Cytotoxicity LD50” value was over 1000 µM. Besides, the IC50 in [2] (setting [8]) was 1.2 µM; in data set [4] (setting [9]), over 20 µM. In addition, the “C. albicans Overnight Growth Inhibition” value with C. albicans [3] was −107.0%. For the same compound, in the data set on C. albicans (MC303), the “C. albicans Phenotype Rating” value is reported as 5.
Consider `CCCCOc1ccc(S(=O)(=O)Nc2cc(C)on2)cc1`, for which, in data set [1], the “AFDD Mammalian Cytotoxicity LD50” value is over 1000 µM. Besides, the IC50 is 0.042 µM in [2] (setting [8]) and 11.7 µM in [4] (setting [9]). For the same compound, the “C. albicans Overnight Growth Inhibition” value in the data set on C. albicans [3] is −6.4%.
Turning to `CCc1ccc(S(=O)(=O)Nc2cc(C)on2)cc1`, the “AFDD Mammalian Cytotoxicity LD50” value in data set [1] is over 1000 µM. Besides, the IC50 in data set [2] (setting [8]) is 1.61 µM; in data set [4] (setting [9]), over 20 µM. Besides, the “C. albicans Overnight Growth Inhibition” value with C. albicans [3] is −78.9%. For the same compound, the “C. albicans Phenotype Rating” value in the data set with C. albicans (MC303) is 4.
Compound `CCCCc1ccc(S(=O)(=O)Nc2cc(C)on2)s1` [Example 2, 5-Butyl-N-(5-methylisoxazol-3yl)thiophene-2-sulfonamide] came in with a melting point of 96.5 to 100.7 °C.
Regarding `CCCCCCc1ccc(S(=O)(=O)Nc2cc(C)on2)cc1`, the “AFDD Mammalian Cytotoxicity LD50” value in [1] amounted to 449.1 µM. In addition, the IC50 in data set [2] (setting [8]) was 0.0099 µM; in data set [4] (setting [9]) it was 2.87 µM. Besides, in the data set on C. albicans [3], the “C. albicans Overnight Growth Inhibition” value was 32.5%. In addition, the “C. albicans Phenotype Rating” value in the data set on C. albicans (MC303) is 2 and 4 and 5.
As to `Cc1cc(NS(=O)(=O)c2ccc(-c3ccccc3)cc2)no1`, the “AFDD Mammalian Cytotoxicity LD50” value in data set [1] was over 1000 µM. For the same compound, in data set [2] (setting [8]), the IC50 is 0.0893 µM. In addition, the “C. albicans Overnight Growth Inhibition” value in the data set with C. albicans [3] stood at 19.5%. In the data set with C. albicans (MC303), the “C. albicans Phenotype Rating” value was 2 and 5.

Source of the values: patent publication US20040106663A1, “Inhibitors of fungal invasion” (priority 2002, published 2004).
